From article PMC11130262, “Ebselen analogues delay disease onset and its course in fALS by on-target SOD-1 engagement” (Scientific Reports, 2024)
Where two headings read alike, the source gives them in different places.

Tests used:
[1] = system: Neuro2a cells with SOD1^G93A expression; experiment: Proteostasis immunoblotting in cultured Neuro2a cells expressing G93A SOD1; assay type: cell-based, mouse; settings: 10 µM, 24 h; for poly-ubiquitinated proteins: Fig. 6J
Procedure: Neuro2a cells were seeded on 6 well plate (#140685 Corning Costar) at 5.0 × 10^4/well, and transfected with human wild-type or G93A SOD1 expressing plasmid[25] using Lipofectamine 2000 (Thermo Fisher Scientific) according to the manufacturer’s instructions.

[2] = system: H4 cells expressing G93A SOD1; experiment: ATP bioluminescent (CellTiter-Glo) cell viability assay, H4 cells expressing G93A SOD1; assay type: cell-based, human; settings: for cell survival: 10 and 25 μM, 24 h, individual drugs; for concentration up to which high level of cells viability is seen: dose-response 2.5 to 100 μM
[3] = system: H4 cells expressing A4V SOD1; experiment: ATP bioluminescent (CellTiter-Glo) cell viability assay, H4 cells expressing A4V SOD1; assay type: cell-based, human; settings: for cell survival: 10 and 25 μM, 24 h, individual drugs
Procedure: (§1) Human H4 neuroglioma cells (HTB-148, ATCC) and mouse Neuro2a neuroblastoma cells (CCL-131, ATCC) were cultured in Dulbecco’s modified Eagle’s medium (DMEM) (Gibco) supplemented with 10%v/v Foetal Bovine Serum (FBS) at 37 °C under humidified atmosphere with 5% CO2. Transfection of the Venus-BiFC SOD1 plasmids to H4 cells was carried out using Turbofect™ transfection agent (#R0533, Thermo Fisher Scientific) following protocols from the manufacture. Briefly, 1.5 × 10^5 H4 cells suspended in 1 mL medium were seeded on a well of 4 compartment-glass bottom dish (Cellview™, Greiner Bio-one) and grown at 37 °C for 24 h. 0.25 µg Venus-BiFC plasmids of wild-type or A4V SOD1 homodimer comprised of equimolar concentrations of VN-SOD1 and SOD1-VC were mixed with 1 µL Turbofect in 0.1 mL FBS-free DMEM and incubated at room temperature for 15 min before adding to seeded H4 cells. […] To determine cell viability, 2.5 × 10^4 cells were seeded in 0.2 mL media in a 96-well plate (Corning Costar, #10695951, Thermo Fisher Scientific). Cell viability was measured either using MTS assay (CellTiter 96, #G3580, Promega) on a plate-reader spectrometer (SpectraMax Plus 384, Molecular Devices) or using CellTiter-GloR 2.0 Assay (#G9241, Promega) following the manufacturer’s protocol. […] BMG POLARstar Omega microplate reader was used for luminescence measurement. To avoid the interference of the antioxidant compounds (ebselen and its analogues) with the luciferase activity in the presence of oxygen, the drugs containing media was replaced with a fresh medium prior to the addition of the reagent.

[4] = system: mouse neuronal N2a cells expressing G93A SOD1; parameters: method as in PMID 32862101; settings: N2a cells expressing G93A SOD1, shown again in Fig. 1B; cited from earlier work
[5] = system: spinal cords of SOD1^G93A mice; assay type: in vivo, mouse
Procedure: Immunoblotting and immunofluorescence analyses were performed as described previously. For the analysis of SOD1 oligomers with aberrant disulfide bonds (SOD1 S–S oligomers), sodium dodecyl sulfate–polyacrylamide gel electrophoresis was performed under non-reducing conditions. […] (Medimabs, Montreal, Quebec, Canada) was used at a 1:250 dilution. Other primary antibodies used for the study were anti-β-actin (1:5,000, #A5441, RRID: AB_476744, Sigma-Aldrich), anti-p62 (1:1,000 for immunoblotting, 1:500 for immunohistochemistry, #PM045, RRID: AB_2169714, Medical and Biological Laboratories (MBL), Nagoya, Japan), anti-polyubiquitin (1:1,000 for immunoblotting, 1:500 for immunohistochemistry, #D058‐3, RRID: AB_592937, MBL), and anti-choline acetyltransferase (ChAT) ((1:100 for immunohistochemistry, #AB144P, RRID:AB_2079751, EMD Millipore Corp., Billerica, MA, USA). Rabbit anti-human SOD1 antibody was raised in our laboratory against a recombinant human SOD1 peptide (aa 24–37) and purified with protein A[66].

A4V SOD1 = A4V SOD1 (Homo sapiens, UniProt P00441, A5V)
Chain of A4V SOD1 (P00441 whole entry A5V): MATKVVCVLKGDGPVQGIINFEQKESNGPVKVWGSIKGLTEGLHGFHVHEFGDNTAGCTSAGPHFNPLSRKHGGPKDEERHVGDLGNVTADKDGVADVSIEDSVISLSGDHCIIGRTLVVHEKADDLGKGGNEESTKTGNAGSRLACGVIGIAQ
Chain of A4V SOD1 (P00441 2-154 A5V limits assumed): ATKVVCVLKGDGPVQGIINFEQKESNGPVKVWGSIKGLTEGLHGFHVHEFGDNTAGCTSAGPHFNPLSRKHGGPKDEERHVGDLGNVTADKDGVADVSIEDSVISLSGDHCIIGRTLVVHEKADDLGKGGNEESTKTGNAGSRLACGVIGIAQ
Procedure: as §1

H46R SOD1 = target: T1, H46R SOD1 (Homo sapiens, UniProt P00441, H47R); experiment: Bimolecular fluorescence complementation (BiFC) assay of SOD1 aggregation, H46R; assay type: cell-based; settings: 50 µM
T1 construct: expressed in transfected cells; host or cells: human H4 neuroglioma cells (HTB-148, ATCC)
T1 sequence (P00441 whole entry H47R): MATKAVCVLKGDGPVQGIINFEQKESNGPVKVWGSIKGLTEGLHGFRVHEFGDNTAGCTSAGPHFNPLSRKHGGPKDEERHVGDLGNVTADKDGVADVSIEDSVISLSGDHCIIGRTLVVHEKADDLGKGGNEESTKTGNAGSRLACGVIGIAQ
T1 sequence (P00441 2-154 H47R limits assumed): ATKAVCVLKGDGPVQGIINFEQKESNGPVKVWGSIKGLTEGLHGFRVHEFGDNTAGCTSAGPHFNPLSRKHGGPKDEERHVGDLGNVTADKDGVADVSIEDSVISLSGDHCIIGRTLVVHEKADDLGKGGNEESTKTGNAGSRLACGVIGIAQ
Procedure: (§2) Human H4 neuroglioma cells cultured in glass-bottom dishes were transfected with Venus fragments as described above using Turbofect transfection reagent. Transfected H4 cells were stained with 5 µM DRAQ5 nuclear stain (ab108410, Abcam) and incubated at 37 °C for 5 min prior to cell imaging. Live cell imaging was performed on cells maintained in a humidified incubator (37 °C, 5% CO2) using a Zeiss LSM 710 microscope. To obtain large field of view for analysis, images were collected using a 4 × 4 tiles with a 20 × Fluar 0.8 NA (Carl Zeiss, Jena, Germany) at 1024 × 1024 pixels. Excitation of Venus fluorescent protein (VFP) was carried out with 514-nm argon laser while DRAQ5 was excited at 633 nm with a HeNe laser. Emitted light was collected through appropriate filters to eliminate any spill-overs. Image acquisition and processing were carried out using ZEN 2.1 software (Carl Zeiss, Jena Germany).
Following the drug treatment (24 h) of transfected cells and nuclear staining with DRAQ5 for 5 min the tiled images were generated as described above. […] Fiji software[52] was used to determine minimum and maximum diameter of cells and inclusions within the cells in pixel units. […]

[6] = system: SOD1^G93A transgenic mice; experiment: Survival and behavioral experiments of SOD1G93A transgenic mice, chronic oral administration; assay type: in vivo, mouse; settings: for disease onset (mean ± SD): female SOD1G93A mice, 0.016% w/w in powder food (estimated dose 24 mg/kg) from 70 days of age, controls 104.4 ± 8.7 (MR6-8-2) and 106.4 ± 9.0 (MR6-26-2)
Procedure: Transgenic mice expressing human SOD1^G93A with C57BL/6 background (B6.Cg‐Tg(SOD1*G93A)1Gur/J) (RRID: IMSR_JAX:004435) were prepared for in vivo experiments using our published protocol with determination of the times for disease onset and end-stage were previously[25],[61]. […] The diet was replenished three times per week, and the mice had free access to their assigned diet and deionized water. The body weight of the mice and clasping signs were measured every week. Disease onset was determined by the time when the mice reached maximum body weight. The clasping signs were scored as 0 (no sign), 1 (one hindlimb partially retracted), 2 (both hindlimb partially retracted), or 3 (hindlimbs were entirely retracted), as described elsewhere[62],[63]. Rotarod tests were performed every two weeks, as previously described[61],[62]. Briefly, the mice were placed on the rotating rods, which accelerated from 0 to 30 rpm for 5 min with 15 min interval between each trial. The longest latencies to fall from the rotating rods out of three trials were scored. All behavioral experiments were conducted under non-blinded conditions. The mice were housed in the specific pathogen-free (SPF) environment (with a 12 h light‐dark cycle at 23 ± 1 °C and 50 ± 5% humidity) and treated in compliance with the requirements of the Animal Care and Use Committee, Nagoya University. The experiments using genetically modified mice were approved by the Animal Care and Use Committee and the recombinant DNA experiment committee of Nagoya University. All methods used for transgenic mice experiments were in accordance with relevant guidelines and regulations and all methods are reported in accordance with ARRIVE guideline.

D90A SOD1 = target: T2, D90A SOD1 (Homo sapiens, UniProt P00441, D91A); experiment: Bimolecular fluorescence complementation (BiFC) assay of SOD1 aggregation, D90A; assay type: cell-based; settings: for reduction of aggregates / aggregation propensity: D90A, 50 µM
T2 construct: expressed in transfected cells; host or cells: human H4 neuroglioma cells (HTB-148, ATCC)
T2 sequence (P00441 whole entry D91A): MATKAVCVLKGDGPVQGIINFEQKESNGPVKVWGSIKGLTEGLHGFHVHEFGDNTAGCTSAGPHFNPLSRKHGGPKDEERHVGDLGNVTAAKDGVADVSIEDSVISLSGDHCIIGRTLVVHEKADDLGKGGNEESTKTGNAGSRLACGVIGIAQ
T2 sequence (P00441 2-154 D91A limits assumed): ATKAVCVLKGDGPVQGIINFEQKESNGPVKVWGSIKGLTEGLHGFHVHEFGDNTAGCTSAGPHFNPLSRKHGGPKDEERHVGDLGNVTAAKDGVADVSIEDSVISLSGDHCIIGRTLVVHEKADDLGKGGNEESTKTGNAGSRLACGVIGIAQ
Procedure: as §2
Following the drug treatment (24 h) of transfected cells and nuclear staining with DRAQ5 for 5 min the tiled images were generated as described above. […] Fiji software[52] was used to determine minimum and maximum diameter of cells and inclusions within the cells in pixel units. These cell/inclusion sizes were then used to set parameters in Cell Profiler[53]. The pipeline was adapted from the Speckle Counter example available from CellProfiler (https://cellprofiler.org/) for the batch analysis of the cells with or without inclusions. The low fluorescent cells missed by the cell profiler were adjusted by manual counting.

G93A SOD1 = target: T3, G93A SOD1 (Homo sapiens, UniProt P00441, G94A); experiment: Bimolecular fluorescence complementation (BiFC) assay of SOD1 aggregation, G93A; assay type: cell-based
T3 construct: expressed in transfected cells; host or cells: human H4 neuroglioma cells (HTB-148, ATCC)
T3 sequence (P00441 whole entry G94A): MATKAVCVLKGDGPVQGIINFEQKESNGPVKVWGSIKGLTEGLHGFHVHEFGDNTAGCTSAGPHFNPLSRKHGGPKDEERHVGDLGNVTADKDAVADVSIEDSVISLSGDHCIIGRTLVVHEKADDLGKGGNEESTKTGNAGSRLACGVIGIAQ
T3 sequence (P00441 2-154 G94A limits assumed): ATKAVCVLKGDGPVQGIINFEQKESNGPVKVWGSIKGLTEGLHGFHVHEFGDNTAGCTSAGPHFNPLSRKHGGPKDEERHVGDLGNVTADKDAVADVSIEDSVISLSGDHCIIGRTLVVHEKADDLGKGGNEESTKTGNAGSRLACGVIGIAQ
Procedure: Human H4 neuroglioma cells cultured in glass-bottom dishes were transfected with Venus fragments as described above using Turbofect transfection reagent. Transfected H4 cells were stained with 5 µM DRAQ5 nuclear stain (ab108410, Abcam) and incubated at 37 °C for 5 min prior to cell imaging. Live cell imaging was performed on cells maintained in a humidified incubator (37 °C, 5% CO2) using a Zeiss LSM 710 microscope. […]

[7] = Oral bioavailability and pharmacokinetic study in mice; assay type: in vivo, female CD1 mice
Procedure: The analysis is based on free measurable amounts of free drug in the plasma and thus is likely to be an underestimation of active drug compound due to the extensive serum albumin binding seen with drugs in this class.
F = (AUCINF-PO/mean AUCINF-IV)/(DosePO/DoseIV) × 100%, AUClast was alternatively used for F calculation when AUCINF was not available or beyond 120% of AUClast. The compound were formulated in 5%DMAC + 95% (20% HP-beta-CD in saline) at 0.2 mg/mL for IV dosing and CMC (0.5%), benzyl alcohol (0.5%), Tween 80 (0.4%) and NaCl (0.9%) at 3 mg/mL for PO dosing, respectively. PK parameters were estimated by non-compartmental model using WinNonlin 8.2.

[8] = system: H4 cells expressing wild-type SOD1; experiment: ATP bioluminescent (CellTiter-Glo) cell viability assay, H4 cells expressing wild-type SOD1; settings: wild-type SOD1, dose-response 2.5 to 100 μM, Supplementary Fig. S1
Procedure: as §1, with “To avoid the interference of the antioxidant compounds (ebselen and its analogues) with the luciferase activity in the presence of oxygen, the drugs containing media was replaced with a fresh medium prior to the addition of the reagent.” left out

[9] = system: SOD1^G93A transgenic mice; parameters: method as in PMID 32862101; settings: cited from earlier work
[10] = female, CD1, mouse, in vivo, iv, 1 mg/kg
[11] = female, CD1, mouse, in vivo, po, 30 mg/kg

Structure (SMILES): Nc1nc2ccc(OC(F)(F)F)cc2s1 [riluzole]
- effect on proteostasis [1]: no effect on proteostasis

Structure (SMILES): CC1=NN(c2ccccc2)C(=O)C1 [edaravone]
- cell survival [2]: increased the cell survival
- insoluble SOD1 species ([1]; Fig. 6I): tendency to reduce insoluble SOD1
- poly-ubiquitinated proteins [1]: little effect
- insoluble p62 ([1]; Fig. 6K): little effect
- cell survival [3]: increased the cell survival

Structure (SMILES): COc1ccc(Cn2[se]c3ccccc3c2=O)cn1 [MR6-26-2]
- dosage restoring wild-type level viability, lower than edaravone [4]: 100 -fold
- cell survival [2]: increased the cell survival
- concentration up to which high level of cells viability is seen [2]: up to 25 µM
- p62- and poly-ubiquitin-doubly positive inclusions in motor neurons ([5]; 120-days-old SOD1G93A lumbar spinal cord): substantially reduced
- SOD1 oligomers with aberrant disulfide bonds in spinal cords ([5]; SOD1G93A mice, 120 days old, non-reducing SDS-PAGE): sharply decreased
- misfolded SOD1 (C4F6 antibody) in lumbar spinal cord ([5]; early symptomatic SOD1G93A mice): reduced the accumulation of misfolded SOD1
- motor neuron degeneration (ChAT-positive motor neurons) ([5]; early symptomatic SOD1G93A mice, Fig. 5J): without affecting the motor neuron degeneration
- level of poly-ubiquitinated proteins in spinal cords ([5]; immunoblotting, insoluble fractions, 120 days old): decreased
- insoluble SOD1 proteins in spinal cords ([5]; mouse, in vivo): sharply decreased
- cells displaying more than 5 inclusions per cell (A4V SOD1; A4V SOD1, 50 µM, 24 h, 75% in untreated cells): 29%
- reduction of aggregates / aggregation propensity (A4V SOD1; A4V, 50 µM): most effective in reducing the aggregates
- drug concentration found to reduce the aggregates effectively (A4V SOD1; A4V, doses 25, 50 and 100 µM, Fig. 3A): 50 µM
- reduction of aggregates / aggregation propensity (H46R SOD1): most effective in reducing the aggregates
- clasping scores ([6]; SOD1G93A mice, Fig. 5C): improvement
- survival time ([6]; SOD1G93A mice, chronic oral): did not show a significant extension
- slowing of disease onset ([6]; SOD1G93A mice, oral): approximately 15 days
- body weights ([6]; Supplementary Fig. S4): unaffected
- rotarod performance ([6]; Supplementary Fig. S4): unaffected
- disease onset (mean ± SD) [6]: 121.1 ± 7.2 days
- cells with more than 5 inclusions per cell (D90A SOD1; D90A SOD1, 50 µM, 24 h): no cells were detected
- reduction of aggregates / aggregation propensity (D90A SOD1): most effective in reducing the aggregates
- cells with more than 5 inclusions per cell (G93A SOD1; G93A SOD1, 50 µM, 24 h): no cells were detected
- reduction of aggregates / aggregation propensity (G93A SOD1; G93A, 50 µM): most effective in reducing the aggregates
- poly-ubiquitinated proteins [1]: reduced
- cell survival [3]: increased the cell survival
- concentration up to which high level of cells viability is seen ([3]; dose-response 2.5 to 100 μM): up to 25 µM
- concentration reviving the cells to maximum level ([3]; dose-response 2.5 to 100 μM, Supplementary Fig. S1): 12.5 µM
- AUC(0-inf) [7, 10]: 203 ng·h/mL
- AUC(0-t) [7, 10]: 197 ng·h/mL
- MRT inf [7, 10]: 16 min
- Vd [7, 10]: 1.37 L/kg
- clearance [7, 10]: 85.7 mL/min/kg
- AUC(0-inf) [7, 11]: 1790 ng·h/mL
- AUC(0-t) [7, 11]: 1730 ng·h/mL
- CL [7, 11]: 0.25 L/h/kg
- MRTINF [7, 11]: 29.5 h
- bioavailability [7, 11]: 29%
- half-life [7, 11]: 90 min
- half-life ([7]; female, CD1, mouse, plasma, IV dose at 1 mg/kg, mean, read-out: T1/2 (converted)): 20.8 min
- half-life ([7]; female, CD1, mouse, plasma, oral dose of 30 mg/kg, mean, read-out: T1/2 (converted)): 81 min
- clearance ([7]; mouse, in vivo): fast clearance

Structure (SMILES): O=c1c2ccccc2[se]n1Cc1cccnc1 [MR6-8-2]
- dosage restoring wild-type level viability, lower than edaravone [4]: 100 -fold
- concentrations giving a sharp fall of viable cells (toxicity) [8]: above 25 µM
- cell survival [2]: increased the cell survival
- reduction of aggregates / aggregation propensity (H46R SOD1): least effective
- disease onset (mean ± SD) [6]: 115.5 ± 9.2 days
- reduction of aggregates / aggregation propensity (D90A SOD1): least effective
- cell survival [3]: increased the cell survival

Structure (SMILES): O=c1c2ccccc2[se]n1-c1ccccc1 [ebselen, 2-phenyl-1,2-benzisoselenazol-3(2H)-one]
- neuroprotection in SOD1G93A mice by delaying disease onset [9]: partial neuroprotection
- cell survival [2]: increased the cell survival
- concentration up to which high level of cells viability is seen [2]: up to 25 µM
- reduction of aggregates / aggregation propensity (H46R SOD1): least effective
- reduction of aggregates / aggregation propensity (D90A SOD1): least effective
- cell survival [3]: increased the cell survival
- concentration up to which high level of cells viability is seen ([3]; dose-response 2.5 to 100 μM): up to 25 µM
